ChEMBL document CHEMBL3132744, “Structureactivity relationship studies of miniproteins targeting the androgen receptorcoactivator interaction” (Medchemcomm, 2013)
Square brackets hold non-standard residues; d marks the D form. Peptide text beside a SMILES is read from it. Phe(4-Cl) = N[C@@H](Cc1ccc(Cl)cc1)C(=O)O; Phe(2-Cl) = N[C@@H](Cc1ccccc1Cl)C(=O)O; Cha = N[C@@H](CC1CCCCC1)C(=O)O

target: T1, Androgen receptor (Homo sapiens, UniProt P10275); experiment: Displacement of fluorescein-CSSRFESLFAGEKESR from human androgen receptor-LBD after 1 hr by fluorescence polarization assay
T1 sequence (P10275 whole entry): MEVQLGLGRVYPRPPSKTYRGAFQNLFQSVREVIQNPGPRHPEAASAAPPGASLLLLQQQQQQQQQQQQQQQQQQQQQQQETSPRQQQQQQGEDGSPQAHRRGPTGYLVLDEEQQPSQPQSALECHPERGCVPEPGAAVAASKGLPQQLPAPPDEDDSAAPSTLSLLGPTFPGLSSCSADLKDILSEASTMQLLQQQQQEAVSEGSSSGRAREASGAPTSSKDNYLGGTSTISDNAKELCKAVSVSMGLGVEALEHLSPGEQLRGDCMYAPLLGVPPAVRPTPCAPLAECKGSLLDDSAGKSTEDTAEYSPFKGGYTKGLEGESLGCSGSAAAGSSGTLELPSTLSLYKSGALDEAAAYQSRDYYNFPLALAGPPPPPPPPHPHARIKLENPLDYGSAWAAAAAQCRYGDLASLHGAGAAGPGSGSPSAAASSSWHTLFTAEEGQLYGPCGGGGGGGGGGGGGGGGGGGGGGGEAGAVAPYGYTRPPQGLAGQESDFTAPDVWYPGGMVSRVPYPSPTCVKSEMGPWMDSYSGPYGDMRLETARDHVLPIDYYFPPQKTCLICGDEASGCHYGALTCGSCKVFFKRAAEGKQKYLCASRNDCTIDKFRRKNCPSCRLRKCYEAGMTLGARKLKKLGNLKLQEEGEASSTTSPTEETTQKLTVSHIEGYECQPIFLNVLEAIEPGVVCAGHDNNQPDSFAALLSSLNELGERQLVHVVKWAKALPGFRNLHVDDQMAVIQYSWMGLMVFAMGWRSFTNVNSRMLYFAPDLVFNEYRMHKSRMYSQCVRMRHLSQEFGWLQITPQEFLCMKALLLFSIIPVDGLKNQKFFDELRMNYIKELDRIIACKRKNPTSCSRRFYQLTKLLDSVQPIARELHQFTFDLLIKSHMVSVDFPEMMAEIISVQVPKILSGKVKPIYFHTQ

Structure (SMILES)	Ki
CC(C)C[C@H](NC(=O)[C@H](CS)NC(=O)[C@H](CC(N)=O)NC(=O)[C@H](Cc1ccccc1)NC(=O)[C@H](CCCNC(=N)N)NC(=O)[C@H](CS)NC(=O)[C@H](C)N)C(=O)N[C@@H](Cc1ccccc1)C(=O)N[C@@H](CCC(=O)O)C(=O)NCC(=O)N[C@@H](CC(N)=O)C(=O)N[C@@H](CC(=O)O)C(=O)N[C@@H](CCC(=O)O)C(=O)N[C@@H](CCC(=O)O)C(=O)N[C@H](C(=O)N[C@@H](CS)C(=O)N[C@@H](CCCCN)C(=O)N[C@@H](CCC(=O)O)C(=O)N[C@@H](Cc1c[nH]c2ccccc12)C(=O)N[C@@H](CS)C(=O)O)[C@@H](C)O (H-ACRFNCLFEGNDEETCKEWC-OH)	12 µM
CC(C)C[C@H](NC(=O)[C@H](CS)NC(=O)[C@H](Cc1ccccc1)NC(=O)[C@H](Cc1ccccc1)NC(=O)[C@H](Cc1ccc(O)cc1)NC(=O)[C@H](CS)NC(=O)[C@H](C)N)C(=O)N[C@@H](Cc1ccccc1)C(=O)N[C@@H](CCC(=O)O)C(=O)NCC(=O)N[C@@H](CC(N)=O)C(=O)N[C@@H](CC(=O)O)C(=O)N[C@@H](CCC(=O)O)C(=O)N[C@@H](CCC(=O)O)C(=O)N[C@H](C(=O)N[C@@H](CS)C(=O)N[C@@H](CCCCN)C(=O)N[C@@H](CCC(=O)O)C(=O)N[C@@H](Cc1c[nH]c2ccccc12)C(=O)N[C@@H](CS)C(=O)O)[C@@H](C)O (H-ACYFFCLFEGNDEETCKEWC-OH)	4 µM
CC(C)C[C@H](NC(=O)[C@H](CS)NC(=O)[C@H](CC(N)=O)NC(=O)[C@H](Cc1ccccc1)NC(=O)[C@H](Cc1ccc(O)cc1)NC(=O)[C@H](CS)NC(=O)[C@H](C)N)C(=O)N[C@@H](CC1CCCCC1)C(=O)N[C@@H](CCC(=O)O)C(=O)NCC(=O)N[C@@H](CC(N)=O)C(=O)N[C@@H](CC(=O)O)C(=O)N[C@@H](CCC(=O)O)C(=O)N[C@@H](CCC(=O)O)C(=O)N[C@H](C(=O)N[C@@H](CS)C(=O)N[C@@H](CCCCN)C(=O)N[C@@H](CCC(=O)O)C(=O)N[C@@H](Cc1c[nH]c2ccccc12)C(=O)N[C@@H](CS)C(=O)O)[C@@H](C)O (H-ACYFNCL[Cha]EGNDEETCKEWC-OH)	2.3 µM
CC(C)C[C@H](NC(=O)[C@H](CS)NC(=O)[C@H](CC(N)=O)NC(=O)[C@H](Cc1ccccc1)NC(=O)[C@H](Cc1ccc(O)cc1)NC(=O)[C@H](CS)NC(=O)[C@H](C)N)C(=O)N[C@@H](Cc1ccccc1Cl)C(=O)N[C@@H](CCC(=O)O)C(=O)NCC(=O)N[C@@H](CC(N)=O)C(=O)N[C@@H](CC(=O)O)C(=O)N[C@@H](CCC(=O)O)C(=O)N[C@@H](CCC(=O)O)C(=O)N[C@H](C(=O)N[C@@H](CS)C(=O)N[C@@H](CCCCN)C(=O)N[C@@H](CCC(=O)O)C(=O)N[C@@H](Cc1c[nH]c2ccccc12)C(=O)N[C@@H](CS)C(=O)O)[C@@H](C)O (H-ACYFNCL[Phe(2-Cl)]EGNDEETCKEWC-OH)	3 µM
CC(C)C[C@H](NC(=O)[C@H](CS)NC(=O)[C@@H](NC(=O)[C@H](Cc1ccccc1)NC(=O)[C@H](Cc1ccc(O)cc1)NC(=O)[C@H](CS)NC(=O)[C@H](C)N)C(C)C)C(=O)N[C@@H](Cc1ccccc1)C(=O)N[C@@H](CCC(=O)O)C(=O)NCC(=O)N[C@@H](CC(N)=O)C(=O)N[C@@H](CC(=O)O)C(=O)N[C@@H](CCC(=O)O)C(=O)N[C@@H](CCC(=O)O)C(=O)N[C@H](C(=O)N[C@@H](CS)C(=O)N[C@@H](CCCCN)C(=O)N[C@@H](CCC(=O)O)C(=O)N[C@@H](Cc1c[nH]c2ccccc12)C(=O)N[C@@H](CS)C(=O)O)[C@@H](C)O (H-ACYFVCLFEGNDEETCKEWC-OH)	3 µM

More lines, now with the values ahead:

Ki	Structure (SMILES)
3 µM	CC(C)C[C@H](NC(=O)[C@H](CS)NC(=O)[C@H](C)N)C(=O)N[C@@H](Cc1ccccc1)C(=O)N[C@@H](CC(N)=O)C(=O)N[C@@H](CS)C(=O)N[C@@H](CC(C)C)C(=O)N[C@@H](Cc1ccccc1)C(=O)N[C@@H](CCC(=O)O)C(=O)NCC(=O)N[C@@H](CC(N)=O)C(=O)N[C@@H](CC(=O)O)C(=O)N[C@@H](CCC(=O)O)C(=O)N[C@@H](CCC(=O)O)C(=O)N[C@H](C(=O)N[C@@H](CS)C(=O)N[C@@H](CCCCN)C(=O)N[C@@H](CCC(=O)O)C(=O)N[C@@H](Cc1c[nH]c2ccccc12)C(=O)N[C@@H](CS)C(=O)O)[C@@H](C)O (H-ACLFNCLFEGNDEETCKEWC-OH)
7 µM	CC(C)C[C@H](NC(=O)[C@H](CS)NC(=O)[C@H](Cc1cnc[nH]1)NC(=O)[C@H](Cc1ccccc1)NC(=O)[C@H](Cc1ccc(O)cc1)NC(=O)[C@H](CS)NC(=O)[C@H](C)N)C(=O)N[C@@H](Cc1ccccc1)C(=O)N[C@@H](CCC(=O)O)C(=O)NCC(=O)N[C@@H](CC(N)=O)C(=O)N[C@@H](CC(=O)O)C(=O)N[C@@H](CCC(=O)O)C(=O)N[C@@H](CCC(=O)O)C(=O)N[C@H](C(=O)N[C@@H](CS)C(=O)N[C@@H](CCCCN)C(=O)N[C@@H](CCC(=O)O)C(=O)N[C@@H](Cc1c[nH]c2ccccc12)C(=O)N[C@@H](CS)C(=O)O)[C@@H](C)O (H-ACYFHCLFEGNDEETCKEWC-OH)
0.2 µM	CC(C)C[C@H](NC(=O)[C@H](CS)NC(=O)[C@H](CC(N)=O)NC(=O)[C@H](Cc1ccccc1)NC(=O)[C@H](Cc1ccc(O)cc1)NC(=O)[C@H](CS)NC(=O)[C@H](C)N)C(=O)N[C@@H](Cc1ccccc1)C(=O)N[C@@H](CCC(=O)O)C(=O)NCC(=O)N[C@@H](CCC(=O)O)C(=O)N[C@@H](CC(=O)O)C(=O)N[C@@H](CCC(=O)O)C(=O)N[C@@H](CCC(=O)O)C(=O)N[C@H](C(=O)N[C@@H](CS)C(=O)N[C@@H](CCCCN)C(=O)N[C@@H](CCC(=O)O)C(=O)N[C@@H](Cc1c[nH]c2ccccc12)C(=O)N[C@@H](CS)C(=O)O)[C@@H](C)O (H-ACYFNCLFEGEDEETCKEWC-OH)
2 µM	CC(C)C[C@H](NC(=O)[C@H](CS)NC(=O)[C@H](CC(N)=O)NC(=O)[C@H](Cc1ccccc1)NC(=O)[C@H](Cc1ccc(O)cc1)NC(=O)[C@H](CS)NC(=O)[C@H](C)N)C(=O)N[C@@H](Cc1ccccc1)C(=O)N[C@@H](CCC(=O)O)C(=O)NCC(=O)N[C@@H](CC(N)=O)C(=O)N[C@@H](CC(=O)O)C(=O)N[C@@H](CCC(=O)O)C(=O)N[C@@H](CCC(=O)O)C(=O)N[C@H](C(=O)N[C@@H](CS)C(=O)N[C@@H](CCCCN)C(=O)N[C@@H](CCC(=O)O)C(=O)N[C@@H](CCCNC(=N)N)C(=O)N[C@@H](CS)C(=O)O)[C@@H](C)O (H-ACYFNCLFEGNDEETCKERC-OH)
1.7 µM	CC(C)C[C@H](NC(=O)[C@H](CS)NC(=O)[C@H](CC(N)=O)NC(=O)[C@H](Cc1ccccc1)NC(=O)[C@H](Cc1ccc(O)cc1)NC(=O)[C@H](CS)NC(=O)[C@H](C)N)C(=O)N[C@@H](Cc1ccccc1)C(=O)N[C@@H](CCC(=O)O)C(=O)NCC(=O)N[C@@H](CC(N)=O)C(=O)N[C@@H](CC(=O)O)C(=O)N[C@@H](CCC(=O)O)C(=O)N[C@@H](CCC(=O)O)C(=O)N[C@H](C(=O)N[C@@H](CS)C(=O)N[C@@H](CCCCN)C(=O)N[C@@H](CCC(=O)O)C(=O)N[C@@H](Cc1c[nH]c2ccccc12)C(=O)N[C@@H](CS)C(=O)O)[C@@H](C)O (H-ACYFNCLFEGNDEETCKEWC-OH)
0.6 µM	CC(C)C[C@H](NC(=O)[C@H](CS)NC(=O)[C@H](CC(N)=O)NC(=O)[C@H](Cc1ccccc1)NC(=O)[C@H](Cc1ccc(O)cc1)NC(=O)[C@H](CS)NC(=O)[C@H](C)N)C(=O)N[C@@H](Cc1ccc(Cl)cc1)C(=O)N[C@@H](CCC(=O)O)C(=O)NCC(=O)N[C@@H](CC(N)=O)C(=O)N[C@@H](CC(=O)O)C(=O)N[C@@H](CCC(=O)O)C(=O)N[C@@H](CCC(=O)O)C(=O)N[C@H](C(=O)N[C@@H](CS)C(=O)N[C@@H](CCCCN)C(=O)N[C@@H](CCC(=O)O)C(=O)N[C@@H](Cc1c[nH]c2ccccc12)C(=O)N[C@@H](CS)C(=O)O)[C@@H](C)O (H-ACYFNCL[Phe(4-Cl)]EGNDEETCKEWC-OH)
1.4 µM	CC(C)C[C@H](NC(=O)[C@H](CC(C)C)NC(=O)[C@H](CS)NC(=O)[C@H](CC(N)=O)NC(=O)[C@H](CC(C)C)NC(=O)[C@H](Cc1ccc(O)cc1)NC(=O)[C@H](CS)NC(=O)[C@H](C)N)C(=O)N[C@@H](CCC(=O)O)C(=O)NCC(=O)N[C@@H](CC(N)=O)C(=O)N[C@@H](CC(=O)O)C(=O)N[C@@H](CCC(=O)O)C(=O)N[C@@H](CCC(=O)O)C(=O)N[C@H](C(=O)N[C@@H](CS)C(=O)N[C@@H](CCCCN)C(=O)N[C@@H](CCC(=O)O)C(=O)N[C@@H](Cc1c[nH]c2ccccc12)C(=O)N[C@@H](CS)C(=O)O)[C@@H](C)O (H-ACYLNCLLEGNDEETCKEWC-OH)
3 µM	CC(C)C[C@H](NC(=O)[C@H](CS)NC(=O)[C@H](CC(N)=O)NC(=O)[C@H](CC1CCCCC1)NC(=O)[C@H](Cc1ccc(O)cc1)NC(=O)[C@H](CS)NC(=O)[C@H](C)N)C(=O)N[C@@H](Cc1ccccc1)C(=O)N[C@@H](CCC(=O)O)C(=O)NCC(=O)N[C@@H](CC(N)=O)C(=O)N[C@@H](CC(=O)O)C(=O)N[C@@H](CCC(=O)O)C(=O)N[C@@H](CCC(=O)O)C(=O)N[C@H](C(=O)N[C@@H](CS)C(=O)N[C@@H](CCCCN)C(=O)N[C@@H](CCC(=O)O)C(=O)N[C@@H](Cc1c[nH]c2ccccc12)C(=O)N[C@@H](CS)C(=O)O)[C@@H](C)O (H-ACY[Cha]NCLFEGNDEETCKEWC-OH)
